Counter-ions that a name gives are not always drawn. Blank lines part the entries; values can stand above or below the molecule they belong to.
How the values were obtained:
TAAR1 = target: T1, TAAR1 (Mus musculus, UniProt Q923Y8); assay: Radioligand binding assay on membranes of HEK293 cells stably expressing TAAR1; conditions: for Ki: mouse TAAR1, radioligand [3H]-rac-2-(1,2,3,4-tetrahydro-1-naphthyl)-2-imidazoline at 60 nM, 4° C., 30 min
T1 construct: expressed in transfected cells; host or cells: HEK293 (ATCC # CRL-1573), stably transfected with pIRESneo2 expression plasmid; membranes prepared
Description: For the construction of expression plasmids the coding sequences of human, rat and mouse TAAR 1 were amplified from genomic DNA essentially as described by Lindemann et al.. The Expand High Fidelity PCR System (Roche Diagnostics) was used with 1.5 mM Mg^2+ and purified PCR products were cloned into pCR2.1-TOPO cloning vector (Invitrogen) following the instructions of the manufacturer. PCR products were subcloned into the pIRESneo2 vector (BD Clontech, Palo Alto, Calif.), and expression vectors were sequence verified before introduction in cell lines.
For the generation of stably transfected cell lines HEK293 cells were transfected with the pIRESneo2 expression plasmids containing the TAAR coding sequences (described above) with Lipofectamine 2000 (Invitrogen) according to the instructions of the manufacturer, and 24 hrs post transfection the culture medium was supplemented with 1 mg/ml G418 (Sigma, Buchs, Switzerland). After a culture period of about 10 d clones were isolated, expanded and tested for responsiveness to trace amines (all compounds purchased from Sigma) with the cAMP Biotrak Enzyme immunoassay (EIA) System (Amersham) following the non-acetylation EIA procedure provided by the manufacturer.
Cells at confluence were rinsed with ice-cold phosphate buffered saline without Ca^2+ and Mg^2+ containing 10 mM EDTA and pelleted by centrifugation at 1000 rpm for 5 min at 4° C. The pellet was then washed twice with ice-cold phosphate buffered saline and cell pellet was frozen immediately by immersion in liquid nitrogen and stored until use at −80° C. Cell pellet was then suspended in 20 ml HEPES-NaOH (20 mM), pH 7.4 containing 10 mM EDTA, and homogenized with a Polytron (PT 3000, Kinematica) at 10,000 rpm for 10 s. The homogenate was centrifuged at 48,000×g for 30 min at 4° C. and the pellet resuspended in 20 ml HEPES-NaOH (20 mM), pH 7.4 containing 0.1 mM EDTA (buffer A), and homogenized with a Polytron at 10,000 rpm for 10 s. The homogenate was then centrifuged at 48,000×g for 30 min at 4° C. and the pellet resuspended in 20 ml buffer A, and homogenized with a Polytron at 10,000 rpm for 10 s. Protein concentration was determined by the method of Pierce (Rockford, Ill.). The homogenate was then centrifuged at 48,000×g for 10 min at 4° C., resuspended in HEPES-NaOH (20 mM), pH 7.0 including MgCl2 (10 mM) and […] homogenized with a Polytron at 10,000 rpm for 10 s.
Binding assay was performed at 4° C. in a final volume of 1 ml, and with an incubation time of 30 min. […] Non-specific binding was defined as the amount of [^3H]-rac-2-(1,2,3,4-tetrahydro-1-naphthyl)-2-imidazoline bound in the presence of the appropriate unlabelled ligand (10 μM). Competing ligands were tested in a wide range of concentrations (10 pM-30 μM). […] Each experiment was performed in duplicate. Al incubations were terminated by rapid filtration through UniFilter-96 plates (Packard Instrument Company) and glass filter GF/C, pre-soaked for at least 2 h in polyethylenimine 0.3%, and using a Filtermate 96 Cell Harvester (Packard Instrument Company). The tubes and filters were then washed 3 times with 1 ml aliquots of cold buffer B. Filters were not dried and soaked in Ultima gold (45 μl/well, Packard Instrument Company) and bound radioactivity was counted by a TopCount Microplate Scintillation Counter (Packard Instrument Company).

T1 sequence (Q923Y8 whole entry): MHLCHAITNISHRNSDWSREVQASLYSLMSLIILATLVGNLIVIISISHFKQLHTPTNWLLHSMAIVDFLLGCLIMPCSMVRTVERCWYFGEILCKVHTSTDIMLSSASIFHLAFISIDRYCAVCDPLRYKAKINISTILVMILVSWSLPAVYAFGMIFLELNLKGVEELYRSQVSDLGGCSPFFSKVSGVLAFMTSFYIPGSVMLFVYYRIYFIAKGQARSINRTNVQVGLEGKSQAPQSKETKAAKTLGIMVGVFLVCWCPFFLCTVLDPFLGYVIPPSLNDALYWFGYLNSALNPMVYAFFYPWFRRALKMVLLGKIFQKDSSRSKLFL

Molecule: Brc1ccc(CC2=NCCN2)c2ccccc12 [Example 104, 2-(4-Bromo-naphthalen-1-ylmethyl)-4,5-dihydro-1H-imidazole]
Ki (TAAR1): 0.008 µM
melting point: 133 to 135 °C

Molecule: COc1cc(Br)c(CC2=NCCN2)cc1OC [Example 34, 2-(2-Bromo-4,5-dimethoxy-benzyl)-4,5-dihydro-1H-imidazole hydrochloride]
Ki (TAAR1): 0.031 µM

Molecule: CCc1cccc(C)c1CC1=NCCN1 [Example 11, 2-(2-Ethyl-6-methyl-benzyl)-4,5-dihydro-1H-imidazole]
Ki (TAAR1): 0.007 µM

Molecule: CCc1ccccc1CC1=NCCN1 [Example 54, 2-(2-Ethyl-benzyl)-4,5-dihydro-1H-imidazole]
Ki (TAAR1): 0.016 µM

Molecule: CCOc1ccc(CC)c(Cc2ncc[nH]2)c1CC [Example 217, 2-(3-Ethoxy-2,6-diethyl-benzyl)-1H-imidazole]
Ki (TAAR1): 0.024 µM

Molecule: CCc1ccc(Br)c(CC)c1Cc1ncc[nH]1 [Example 77, 2-(3-Bromo-2,6-diethyl-benzyl)-1H-imidazole]
Ki (TAAR1): 0.026 µM

Molecule: 4-Tritio-2-naphthalen-1-ylmethyl-4,5-dihydro-1H-imidazole [Example 113]
Ki (TAAR1): 0.007 µM

Molecule: c1ccc2c(c1)CCCC2C1=NCCN1 (racemic) [[^3H]-rac-2-(1,2,3,4-tetrahydro-1-naphthyl)-2-imidazoline, reference compound]
Kd (TAAR1; radioligand used in the TAAR1 binding assay, species not given, read-out: calculated Kd value of the radioligand): 0.06 µM

Molecule: Cc1sc(C)c(CC2=NCCN2)c1C [Example 109, 2-(2,4,5-Trimethyl-thiophen-3-ylmethyl)-4,5-dihydro-1H-imidazole]
Ki (TAAR1): 0.004 µM

Molecule: c1cc2ccc(CC3=NCCN3)cc2o1 [Example 170, 2-Benzofuran-6-ylmethyl-4,5-dihydro-1H-imidazole hydrochloride]
Ki (TAAR1): 0.026 µM

Molecule: Cc1cccc(C(C)C2=NCCN2)c1C (racemic) [Example 18, rac-2-[1-(2,3-Dimethyl-phenyl)-ethyl]-4,5-dihydro-1H-imidazole hydrochloride]
Ki (TAAR1): 0.027 µM

Molecule: CCc1cccc(CC)c1Cc1ncc[nH]1 [Example 70, 2-(2,6-Diethyl-benzyl)-1H-imidazole]
Ki (TAAR1): 0.025 µM

Ki (TAAR1): 0.047 µM
Molecule: CCc1ccc(OCc2ccccc2)c(CC)c1Cc1ncc[nH]1 [Example 218, 2-(3-Benzyloxy-2,6-diethyl-benzyl)-1H-imidazole]

Molecule: Cc1c(C)c(C)c(CC2=NCCN2)c(C)c1C [Example 115, 2-Pentamethylphenylmethyl-4,5-dihydro-1H-imidazole]
Ki (TAAR1): 0.007 µM

Molecule: COc1c(CC2=NCCN2)ccc2occc12 [Example 169, 2-(4-Methoxy-benzofuran-5-ylmethyl)-4,5-dihydro-1H-imidazole hydrochloride]
Ki (TAAR1): 0.045 µM

Molecule: CCc1ccc(OC)c(CC)c1CC1=NCCN1 [Example 206, 2-(2,6-Diethyl-3-methoxy-benzyl)-4,5-dihydro-1H-imidazole]
Ki (TAAR1): 0.038 µM
